This note sets out measurements from ChEMBL document CHEMBL1135038, “Initial structure-activity relationship studies of a novel series of pyrrolo[1,2-a]pyrimid-7-ones as GnRH receptor antagonists” (Bioorg Med Chem Lett, 2002).

Structures are written as SMILES.

The first experiment deals with T1, Gonadotropin-releasing hormone receptor (Rattus norvegicus, UniProt P30969).
T1 sequence (P30969 whole entry): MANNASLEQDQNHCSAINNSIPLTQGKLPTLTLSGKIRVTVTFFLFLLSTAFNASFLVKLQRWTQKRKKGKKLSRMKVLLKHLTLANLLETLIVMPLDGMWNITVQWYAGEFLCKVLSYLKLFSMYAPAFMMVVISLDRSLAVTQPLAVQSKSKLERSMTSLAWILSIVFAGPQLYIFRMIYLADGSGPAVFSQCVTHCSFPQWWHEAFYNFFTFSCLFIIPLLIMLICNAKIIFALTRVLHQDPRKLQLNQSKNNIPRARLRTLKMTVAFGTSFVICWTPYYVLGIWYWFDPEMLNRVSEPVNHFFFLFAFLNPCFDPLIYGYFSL
The experiment in a line: Binding affinity against gonadotropin-releasing hormone receptor of rat.
For orientation: IC50 means the midpoint of a concentration-inhibition curve. The low end stands for greater potency in that assay, the high end for weaker potency in that assay. For the molecule `Cc1cc(C)cc(-c2[nH]c3ccccc3c2CCNCCCCc2ccc(NS(C)(=O)=O)cc2)c1`, the IC50 is 0.17 µM. A word on the Ki: it is a dissociation constant, usually derived from enzyme kinetics or from competition with a known ligand. High values mean a looser hold on the target, low ones a stronger hold on the target. In the case of `CN(CCc1ccccn1)Cc1c(-c2ccc(OC3CCCC3)cc2)c(C#N)c2n(Cc3ccccc3F)cc(C(=O)OC3CCCC3)c(=O)n12`, the Ki turned out to be 8.9 µM. `Cc1cc(-c2c(O)nc3ccc(C(=O)Nc4ccncn4)cc3c2OCC[C@@H]2CCN2)cc(C)c1C` displayed an IC50 of 0.004 µM. `CCC(CC)OC(=O)c1cn(Cc2ccccc2F)c2c(C#N)c(-c3ccc(OC4CCCC4)cc3)c(CN(C)CCc3ccccn3)n2c1=O` displayed a Ki of 7.6 µM. With `CCC(CC)OC(=O)c1cn(Cc2ccccc2F)c2c(C#N)c(-c3ccc(OC)cc3)c(CN(C)CCc3ccccn3)n2c1=O`, the inhibition constant Ki worked out at 7.7 µM. This Ki and that of the molecule before are within 1.5-fold of each other. Same read-out and setting: then `CCC(CC)OC(=O)c1cn(Cc2ccccc2F)c2c(C#N)c(-c3ccc(OCC(C)C)cc3)c(CN(C)CCc3ccccn3)n2c1=O`, with 7.3 µM.

The target in another experiment is T2, Gonadotropin-releasing hormone receptor (Homo sapiens, UniProt P30968).
T2 sequence (P30968 whole entry): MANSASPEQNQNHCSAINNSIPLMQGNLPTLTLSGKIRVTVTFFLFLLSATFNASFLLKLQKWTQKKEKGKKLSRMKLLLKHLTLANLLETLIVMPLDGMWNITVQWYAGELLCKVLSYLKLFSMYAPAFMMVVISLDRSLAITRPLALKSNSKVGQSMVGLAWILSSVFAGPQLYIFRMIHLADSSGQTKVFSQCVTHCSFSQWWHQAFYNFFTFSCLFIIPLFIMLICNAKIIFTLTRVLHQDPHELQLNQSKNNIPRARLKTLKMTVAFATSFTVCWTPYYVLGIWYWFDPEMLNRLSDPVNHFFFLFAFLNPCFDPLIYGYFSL
Briefly: Binding affinity against human GnRH receptor expressed in HEK293 cells using des-Gly10[125I]Tyr5, D-Leu, NMeLeu, Pro-NEt GnRH as radioligand. The format is cell-based.
In turn, `CCOC(=O)c1cn(Cc2cc(F)ccc2F)c2c(C#N)c(-c3ccc(OCC(C)C)cc3)c(CN(C)CCc3ccccn3)n2c1=O` showed a Ki of 1.2 µM. Same read-out and setting: then `COc1ccc(-c2c(C#N)c3n(Cc4ccccc4F)cc(C(=O)OC(C4CC4)C4CC4)c(=O)n3c2CN(C)CCc2ccccn2)cc1`, with 2.5 µM; and `CCOC(=O)c1cn(Cc2ccc(F)cc2F)c2c(C#N)c(-c3ccc(OCC(C)C)cc3)c(CN(C)CCc3ccncc3)n2c1=O`, with greater than 50 µM.

As for `CCOC(=O)c1cn(Cc2c(F)cccc2F)c2c(C#N)c(-c3ccc(OC)cc3)c(CN(C)CCc3ccccn3)n2c1=O`, the Ki is 2 µM. Consider `COc1ccc(-c2c(C#N)c3n(Cc4ccccc4F)cc(C(=O)OC(C)C)c(=O)n3c2CN(C)CCc2ccccn2)cc1`, for which the Ki worked out at 0.4 µM.

Turning to `CCOC(=O)c1cn(Cc2ccc(F)cc2F)c2c(C#N)c(-c3ccc(OCC(C)C)cc3)c(CN(C)CCc3cccnc3)n2c1=O`, the Ki turned out to be 28 µM.

As for `CCOC(=O)c1cn(Cc2ccc(F)cc2F)c2c(C#N)c(-c3ccc(OC)cc3)c(CN(C)CCc3ccccn3)n2c1=O`, affinity was put at a Ki of 3.7 µM.

For `CN(CCc1ccccn1)Cc1c(-c2ccc(OC3CCCC3)cc2)c(C#N)c2n(Cc3ccccc3F)cc(C(=O)OC3CCCC3)c(=O)n12`, the Ki is 0.033 µM. `CCOC(=O)c1cn(Cc2ccccc2)c2c(C#N)c(-c3ccc(OC)cc3)c(CN(C)Cc3ccccc3)n2c1=O` came in with a Ki of 42 µM. On the same count and under the same terms, the figure for `CCOC(=O)c1cn(Cc2ccccc2)c2c(C#N)c(-c3ccc(OC)cc3)c(CN(C)CCc3ccccn3)n2c1=O` is 2.6 µM; for `CCOC(=O)c1cn(Cc2ccccc2Cl)c2c(C#N)c(-c3ccc(OC)cc3)c(CN(C)CCc3ccccn3)n2c1=O` it is 8.5 µM; for `CCOC(=O)c1cn(Cc2ccccc2F)c2c(C#N)c(-c3ccc(OCC(C)C)cc3)c(CN(C)CCc3ccccn3)n2c1=O` it is 0.1 µM. `CCOC(=O)c1cn(Cc2ccc(F)cc2F)c2c(C#N)c(-c3ccc(OCC(C)C)cc3)c(CN(C)CCc3ccccn3)n2c1=O` registered a Ki of 0.4 µM.

`CCOC(=O)c1cn(CC2CC2)c2c(C#N)c(-c3ccc(OC)cc3)c(CN(C)CCc3ccccn3)n2c1=O` returned a Ki greater than 50 µM. The same measure, in the same setting: the figure for `CCOC(=O)c1cn(Cc2c(F)cccc2F)c2c(C#N)c(-c3ccc(OCC(C)C)cc3)c(CN(C)CCc3ccccn3)n2c1=O` is 0.8 µM; for `CCOC(=O)c1cn(Cc2cc(F)ccc2F)c2c(C#N)c(-c3ccc(OC)cc3)c(CN(C)CCc3ccccn3)n2c1=O` it is 6 µM.

The molecule `CCOC(=O)c1cn(Cc2ccccc2F)c2c(C#N)c(-c3ccc(OC)cc3)c(CN(C)Cc3ccccc3)n2c1=O` displayed a Ki of 1.8 µM. Same read-out and setting: then `CCOC(=O)c1cn(Cc2ccccc2C#N)c2c(C#N)c(-c3ccc(OC)cc3)c(CN(C)CCc3ccccn3)n2c1=O`, with 4.9 µM; and `CCOC(=O)c1cn(Cc2ccc(F)cc2F)c2c(C#N)c(-c3ccc(OCC(C)C)cc3)c(CN(C)CCc3ccccc3)n2c1=O`, with greater than 50 µM. On the same count and under the same terms, the figure for `COc1ccc(-c2c(C#N)c3n(Cc4ccccc4F)cc(C(=O)OC4CCCC4)c(=O)n3c2CN(C)CCc2ccccn2)cc1` is 0.26 µM. The same measure, in the same setting: then `CCC(CC)OC(=O)c1cn(Cc2ccccc2F)c2c(C#N)c(-c3ccc(OC4CCCC4)cc3)c(CN(C)CCc3ccccn3)n2c1=O`, with 0.031 µM; and `CCOC(=O)c1cn(Cc2ccccc2)c2c(C#N)c(-c3ccc(OC)cc3)c(CN(C)C)n2c1=O`, with greater than 50 µM; and `COc1ccc(-c2c(C#N)c3n(Cc4ccccc4F)cc(C(=O)OC4CCOC4)c(=O)n3c2CN(C)CCc2ccccn2)cc1` (configuration not stated), with 2.1 µM. The molecule `CCOC(=O)c1cn(Cc2ccccc2OC)c2c(C#N)c(-c3ccc(OC)cc3)c(CN(C)CCc3ccccn3)n2c1=O` showed a Ki of 6.6 µM. Against the preceding molecule, the Ki is about 3.1-fold higher. The same measure, in the same setting: the figure for `CCC(CC)OC(=O)c1cn(Cc2ccccc2F)c2c(C#N)c(-c3ccc(OC)cc3)c(CN(C)CCc3ccccn3)n2c1=O` is 0.18 µM. `CCOC(=O)c1cn(Cc2ccccc2OC)c2c(C#N)c(-c3ccc(OCC(C)C)cc3)c(CN(C)CCc3ccccn3)n2c1=O` had a Ki of 2.2 µM.

`CCOC(=O)c1cn(Cc2ccccc2F)c2c(C#N)c(-c3ccc(OC)cc3)c(CN(C)CCc3ccccn3)n2c1=O` showed a Ki of 0.5 µM. On the same count and under the same terms, then `CCOC(=O)c1cn(Cc2cccc(F)c2F)c2c(C#N)c(-c3ccc(OC)cc3)c(CN(C)CCc3ccccn3)n2c1=O`, with 2.4 µM.

The molecule `CCC(CC)OC(=O)c1cn(Cc2ccccc2F)c2c(C#N)c(-c3ccc(OCC(C)C)cc3)c(CN(C)CCc3ccccn3)n2c1=O` returned a Ki of 0.025 µM.

The target of a further experiment is T2, Gonadotropin-releasing hormone receptor. Briefly: Inhibitory activity against human GnRH receptor using des-Gly10[125I]Tyr5, D-Leu, NMeLeu, Pro-NEt]GnRH radioligand.
Take `Cc1cc(C)cc(-c2[nH]c3ccccc3c2CCNCCCCc2ccc(NS(C)(=O)=O)cc2)c1`: the IC50 came out at 0.007 µM. This counts as single-digit nanomolar. Take `Cc1cc(-c2c(O)nc3ccc(C(=O)Nc4ccncn4)cc3c2OCC[C@@H]2CCN2)cc(C)c1C`: the IC50 came to 0.0004 µM.
